Each block holds one compound with its values, some of them ahead of it.
Columns and labels:
BACE 1 = BACE 1 (Homo sapiens (Human), UniProt P56817); assay: In vitro enzymatic BACE FRET assay; assay type: biochemical; details: average IC50; acetate buffer pH 4.2, enzyme 0.2 nM, FRET substrate 50 nM
Description: In Vitro Enzymatic BACE FRET (Fluorescence Resonance Energy Transfer) Assay (Enzyme Assay Data in the Example Table I)
The assay buffer used in this screen is 0.05 M acetate, pH 4.2, 10% DMSO final, 100 uM genapol (which is a nonionic detergent, below its Critical Micelle Concentration). The Beta Secretase enzyme (0.2 nM) is pre-incubated for one hour with inhibitors, typically in about 1 uL of DMSO according to a serial dilution, are added thereto. This assay is effectively started by the addition of FRET substrate (50 nM) and the combination is incubated for one hour. The FRET assay is terminated with by addition of Tris buffer, which raises the pH to neutrality, and the fluorescence is determined. The FRET substrate is a peptide with commercially available fluorophore and quencher, on opposite sides of the BACE cleavage site. Proteolytic cleavage of the FRET substrate releases quenching of fluorescence (excitation 488 nm and […]).

[1] = system: Aβ 40 levels in cells stably expressing Amyloid Precursor Protein (APP); assay: In vitro BACE cell-based assay (HEK cell assay), Aβ40 sandwich ELISA; details: average IC50, inhibition of Aβ40 in conditioned medium after 24 h
Description: The cell-based assay measures inhibition or reduction of Aβ40 in conditioned medium of test compound treated cells expressing amyloid precursor protein.
Cells stably expressing Amyloid Precursor Protein (APP) were plated at a density of 40K cells/well in 96 well plates (Costar). The cells were cultivated for 24 hours at 37° C. and 5% CO2 in DMEM supplemented with 10% FBS. The test compounds were then added to cells in 10-point dose response concentrations with the starting concentration being either 100 μM or 10 μM. The compounds were diluted from stock solutions in DMSO and the final DMSO concentration of the test compounds on cells was 0.1%. After 24 h of incubation with the test compounds the supernatant conditioned media was collected and the Aβ 40 levels were determined using a sandwich ELISA. The IC50 of the compound was calculated from the percent of control or percent inhibition of Aβ 40 as a function of the concentration of the test compound.
The sandwich ELISA to detect Aβ 40 was performed in 96 well microtiter plates, which were pre-treated with goat anti-rabbit IgG (Pierce). The capture and detecting antibody pair that were used to detect Aβ 40 from cell supernatants were affinity purified pAb40 (Biosource) and biotinylated 6E10 (Signet Labs Inc.), respectively.
Cellular supernatants were incubated with the capture antibody for 3 h at 4° C., followed by 3 wash steps in TBS-tween (0.05%). The detecting antibody incubation was for 2 h at 4° C., again followed by the wash steps as described previously. The final readout of the ELISA is Time-Resolved Fluorescence (counts per minute) using Delfia reagents Streptavidin-Europium and Enhancement solutions (Perkin Elmer) and the Victor 2 multilabel counter (Perkin Elmer).

gamma-secretase = details: cited from earlier work

Sequence of BACE 1 (P56817 46-501): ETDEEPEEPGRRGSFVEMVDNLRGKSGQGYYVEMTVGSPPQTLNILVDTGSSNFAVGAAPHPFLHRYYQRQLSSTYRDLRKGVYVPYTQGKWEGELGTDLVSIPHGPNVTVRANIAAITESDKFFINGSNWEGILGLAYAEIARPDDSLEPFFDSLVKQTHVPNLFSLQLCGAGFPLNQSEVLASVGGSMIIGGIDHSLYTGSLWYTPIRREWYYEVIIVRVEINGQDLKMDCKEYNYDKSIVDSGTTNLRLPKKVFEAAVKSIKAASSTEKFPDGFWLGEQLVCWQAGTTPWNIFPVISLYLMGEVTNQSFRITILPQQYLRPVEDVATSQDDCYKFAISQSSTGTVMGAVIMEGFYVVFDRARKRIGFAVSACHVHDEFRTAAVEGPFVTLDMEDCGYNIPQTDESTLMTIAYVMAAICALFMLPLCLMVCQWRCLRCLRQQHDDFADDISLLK

IC50 (BACE 1): 189 nM | IC50 ([1]; Homo sapiens, HEK293): 3970 nM
Compound: NC1=N[C@]2(c3cc(-c4cccnc4F)ccc3Oc3c(F)cc(N4CCOCC4)cc32)c2nccn21 [Example 9A, (7S)-4′-fluoro-7′-(2-fluoro-3-pyridinyl)-2′-(4-morpholinyl)spiro[imidazo[1,5-a]imidazole-7,9′-xanthen]-5-amine]

IC50 (BACE 1): 10 nM | IC50 ([1]; Homo sapiens, HEK293): 138 nM
Compound: NC1=N[C@]2(c3cc(-c4cccnc4F)ccc3Oc3c(F)cc(-c4ccnc(F)c4)cc32)c2nccn21 [Example 8A, (7S)-4′-fluoro-7′-(2-fluoro-3-pyridinyl)-2′-(2-fluoro-4-pyridinyl)spiro[imidazo[1,5-a]imidazole-7,9′-xanthen]-5-amine]

IC50 (BACE 1): 0.3 nM | IC50 ([1]; Homo sapiens, HEK293): 86 nM
Compound: NC1=N[C@@]2(c3cc(-c4cccnc4F)ccc3Oc3c(F)cc(-c4ccnc(F)c4)cc32)c2nccn21 [Example 8B, (7R)-4′-fluoro-7′-(2-fluoro-3-pyridinyl)-2′-(2-fluoro-4-pyridinyl)spiro[imidazo[1,5-a]imidazole-7,9′-xanthen]-5-amine]

IC50 (BACE 1): 0.7 nM | IC50 ([1]; Homo sapiens, HEK293): 31 nM
Compound: NC1=N[C@@]2(c3cc(-c4cccnc4F)ccc3Oc3c(F)cc(N4CCOCC4)cc32)c2nccn21 [Example 9B, (7R)-4′-fluoro-7′-(2-fluoro-3-pyridinyl)-2′-(4-morpholinyl)spiro[imidazo[1,5-a]imidazole-7,9′-xanthen]-5-amine]

Second part, the compound before the results:

Compound: COc1cc(F)c2c(c1)C1(N=C(N)n3ccnc31)c1cc(-c3cccnc3F)ccc1O2 (stereo not shown) [Example 11, 4′-fluoro-7′-(2-fluoro-3-pyridinyl)-2′-methoxyspiro[imidazo[1,5-a]imidazole-7,9′-xanthen]-5-amine]
IC50 (BACE 1): 9 nM | IC50 ([1]; Homo sapiens, HEK293): 58 nM

Compound: Cc1ccc(-c2cc(F)c3c(c2)[C@@]2(N=C(N)n4ccnc42)c2cc(-c4cccnc4F)ccc2O3)cc1 [Example 15, (7S)-4′-fluoro-7′-(2-fluoro-3-pyridinyl)-2′-(4-methylphenyl)spiro[imidazo[1,5-a]imidazole-7,9′-xanthen]-5-amine]
IC50 (BACE 1): 0.4 nM | IC50 ([1]; Homo sapiens, HEK293): 28 nM

Compound: (7R)-2′-(3,6-dihydro-2H-pyran-4-yl)-4′-fluoro-7′-(2-fluoro-3-pyridinyl)spiro[imidazo[1,5-a]imidazole-7,9′-xanthen]-5-amine, (7S)-2′-(3,6-dihydro-2H-pyran-4-yl)-4′-fluoro-7′-(2-fluoro-3-pyridinyl)spiro[imidazo[1,5-a]imidazole-7,9′-xanthen]-5-amine [Example 16]
IC50 (BACE 1): 0.6 nM | IC50 [1]: 39 nM

Compound: NC1=N[C@]2(c3cc(-c4cccnc4F)ccc3Oc3c(F)cc(C4=CCCOC4)cc32)c2nccn21 [Example 13, (7S)-2′-(5,6-dihydro-2H-pyran-3-yl)-4′-fluoro-7′-(2-fluoro-3-pyridinyl)spiro[imidazo[1,5-a]imidazole-7,9′-xanthen]-5-amine]
IC50 (BACE 1): 0.4 nM | IC50 ([1]; Homo sapiens, HEK293): 29 nM

Compound: NC1=N[C@@]2(c3cc(-c4cccnc4F)ccc3Oc3c(F)cc(C4=CCCOC4)cc32)c2nccn21 [Example 12, (7R)-2′-(5,6-dihydro-2H-pyran-3-yl)-4′-fluoro-7′-(2-fluoro-3-pyridinyl)spiro[imidazo[1,5-a]imidazole-7,9′-xanthen]-5-amine]
IC50 (BACE 1): 23 nM | IC50 ([1]; Homo sapiens, HEK293): 173 nM

Compound: COc1cc(F)c2c(c1)[C@@]1(N=C(N)N3CCCN=C31)c1cc(-c3cccnc3F)ccc1O2 [Example 10, (7S)-4′-fluoro-7′-(2-fluoropyridin-3-yl)-2′-methoxy-3,4-dihydro-2H-spiro[imidazo[1,5-a]pyrimidine-8,9′-xanthen]-6-amine (7R)-4′-fluoro-7′-(2-fluoropyridin-3-yl)-2′-methoxy-3,4-dihydro-2H-spiro[imidazo[1,5-a]pyrimidine-8,9′-xanthen]-6-amine]
IC50 (BACE 1): 22 nM | IC50 ([1]; Homo sapiens, HEK293): 78 nM

Compound: Cc1ccc(-c2cc(F)c3c(c2)[C@]2(N=C(N)n4ccnc42)c2cc(-c4cccnc4F)ccc2O3)cc1 [Example 14, (7R)-4′-fluoro-7′-(2-fluoro-3-pyridinyl)-2′-(4-methylphenyl)spiro[imidazo[1,5-a]imidazole-7,9′-xanthen]-5-amine]
IC50 (BACE 1): 114 nM | IC50 ([1]; Homo sapiens, HEK293): 4160 nM

Compound: NC1=N[C@]2(c3cc(-c4cccnc4F)ccc3Oc3c(F)cc(N4CCC(F)(F)CC4)cc32)c2nccn21 [Example 17, (7R)-2′-(4,4-difluoro-1-piperidinyl)-4′-fluoro-7′-(2-fluoro-3-pyridinyl)spiro[imidazo[1,5-a]imidazole-7,9′-xanthen]-5-amine, (7S)-2′-(4,4-difluoro-1-piperidinyl)-4′-fluoro-7′-(2-fluoro-3-pyridinyl)spiro[imidazo[1,5-a]imidazole-7,9′-xanthen]-5-amine]
IC50 (BACE 1): 0.7 nM | IC50 [1]: 51 nM

Compound: NC(=O)[C@@H](CCC(F)(F)F)N(Cc1ccc(-c2ncon2)cc1F)S(=O)(=O)c1ccc(Cl)cc1 [BMS-708163]
notch selectivity (amyloid-beta precursor protein selective) (gamma-secretase): 193 ×
